Test results: publication PMC12544700, “Identification of a Small Secretoneurin Derivative That Inhibits CaMKIIδ Activity” (Journal of Cellular and Molecular Medicine, 2025)
Peptide text beside a SMILES is read from it. * marks the point of attachment. Biotin = O=C1N[C@H]2[C@H](CS[C@H]2CCCCC(=O)*)N1; Ahx = NCCCCCC(=O)O

Molecular target: T1, human His‐CaMKIIδ‐T287D (Homo sapiens, UniProt Q13557, T287D)
T1 construct: Recombinant human His‐CaMKIIδ‐T287D and rat His‐CaMKIIδ‐T287D full‐length proteins; His; purchased Genscript Corp (custom made)
Assay: ELISA-based binding to human His‐CaMKIIδ‐T287D
Settings: biotin‐ahx‐SN‐db‐short; values relative to biotin‐ahx‐Scram; Figure S2B, n = 6
Procedure: A 96‐well microplate was coated with 1 μg/well of rat or human recombinant His‐CaMKIIδ‐T287D or CaMKIIδ fragments (custom made by Genscript) in 1× PBS overnight at 4°C with gentle tilting. Wells were washed with 1× PBS‐t (0.1% Tween‐20) and blocked with 0.5% gelatin (G‐1890 Gelatin type A, Sigma Merck, Darmstadt, Germany) or BSA (805095 30% BSA (Rinderalbumin 30%), Norsk Labex, Høvik, Norway) for 1 h at room temperature (RT), then incubated with 5 μL of biotinylated peptide (1 mM) for 2 h at 37°C with gentle tilting. The wells were then washed five times with 1× PBS‐t. To detect binding, the wells were incubated with a monoclonal anti‐biotin‐HRP conjugated antibody (1:5000 dilution, A‐0185, Sigma) for 30 min at RT. The washing steps were repeated, and the plate was incubated with the Ultra TMB solution (1‐step Ultra TMB‐ELISA Substrate Solution 34028, Thermo Fischer Scientific, Waltham, MA, USA) for 30 min at RT with gentle tilting. The reaction was stopped by adding 2 N HCl (100 μL), and the signal was measured at 450 nm by a plate reader (Hidex Sense Microplate Reader, Åbo, Finland). For the competition assay, 20 μL (1 mM) of T‐site binding peptides AKAP18δ‐N1, CN21 or CN27 (without any biotin tags) were incubated in the same well with 5 μL (1 mM) of SN biotinylated peptides. […]

T1 sequence (Q13557 whole entry T287D): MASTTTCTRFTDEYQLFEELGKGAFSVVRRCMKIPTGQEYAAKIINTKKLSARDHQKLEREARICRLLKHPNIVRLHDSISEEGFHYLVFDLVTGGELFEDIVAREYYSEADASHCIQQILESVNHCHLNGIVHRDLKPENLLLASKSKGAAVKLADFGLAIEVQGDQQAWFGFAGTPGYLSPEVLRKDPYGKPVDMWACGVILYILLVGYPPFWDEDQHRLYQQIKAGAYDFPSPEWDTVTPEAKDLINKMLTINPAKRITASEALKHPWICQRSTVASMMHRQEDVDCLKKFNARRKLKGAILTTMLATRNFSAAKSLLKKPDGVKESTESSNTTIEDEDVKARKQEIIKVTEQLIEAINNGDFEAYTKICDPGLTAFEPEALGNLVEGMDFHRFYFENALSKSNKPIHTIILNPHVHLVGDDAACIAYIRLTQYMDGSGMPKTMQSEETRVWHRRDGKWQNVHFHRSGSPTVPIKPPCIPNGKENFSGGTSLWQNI

Binding to recombinant human CaMKIIδ‐T287D (ELISA): increased binding
Compound: CC(C)C[C@H](NC(=O)[C@H](CCC(=O)O)NC(=O)[C@H](CCC(N)=O)NC(=O)[C@H](Cc1ccccc1)NC(=O)[C@H](Cc1ccccc1)NC(=O)[C@H](CO)NC(=O)[C@H](CCC(=O)O)NC(=O)[C@H](Cc1ccccc1)NC(=O)[C@@H](NC(=O)[C@H](C)NC(=O)[C@H](CC(C)C)NC(=O)[C@H](CO)NC(=O)[C@H](CCC(N)=O)NC(=O)[C@@H]1CCCN1C(=O)[C@@H](NC(=O)[C@H](Cc1ccc(O)cc1)NC(=O)[C@H](CCC(N)=O)NC(=O)[C@H](CCC(=O)O)NC(=O)CCCCCNC(=O)CCCC[C@@H]1SC[C@@H]2NC(=O)N[C@@H]21)[C@@H](C)O)[C@@H](C)O)C(=O)NCC(=O)N[C@@H](CCCCN)C(=O)O [SN‐db‐short] ({Biotin-Ahx}-EQYTPQSLATFESFFQELGK-OH; N-terminus and C-terminus assumed)
